Assay results reported in patent US4584377A, “Novel Fredericamycin A derivatives” (SS Pharmaceutical Co., Ltd., priority 1983, dated 1986).
Converted amounts (≈) assume the structure as drawn. Like-named read-outs stand apart in the source and are kept apart here.

Experiments:
[1] = tested on: Bacillus subtilis ATCC 6633; experiment: MIC, antibacterial activity (agar culture); assay type: cell-based; conditions: ATCC6633, 37° C., 18-20 hours, Mueller-Hinton agar, read-out: Minimum inhibitory concentration MIC
[2] = tested on: Debaryomyces Kloecheri IFO 0015; experiment: MIC, yeasts and molds (agar culture); assay type: cell-based; conditions: IFO0015, 28° C., 120 hours, glucose-peptone agar, read-out: Minimum inhibitory concentration MIC
[3] = tested on: Fusarium moniliforme IAM 5062; experiment: MIC, yeasts and molds (agar culture); assay type: cell-based; conditions: Fusarium verticillioides, IAM5062, 28° C., 120 hours, glucose-peptone agar, read-out: Minimum inhibitory concentration MIC
Ehrlich carcinoma = experiment: Antitumor effect, survival of tumor-inoculated mice; assay type: in vivo, ICR mice; conditions: Mus musculus, ip, 240 h, intraperitoneally, once a day for 10 days, read-out: percentage of mean survival time of test and control animals
[4] = tested on: Staphylococcus aureus FDA 209P; experiment: MIC, antibacterial activity (agar culture); assay type: cell-based; conditions: FDA209P, 37° C., 18-20 hours, Mueller-Hinton agar, read-out: Minimum inhibitory concentration MIC
[5] = tested on: Klebsiella pneumoniae ATCC 10031; experiment: MIC, antibacterial activity (agar culture); assay type: cell-based; conditions: ATCC10031, 37° C., 18-20 hours, Mueller-Hinton agar, read-out: Minimum inhibitory concentration MIC
Escherichia coli 0-1 = experiment: MIC, antibacterial activity (agar culture); assay type: cell-based; conditions: 01, 37° C., 18-20 hours, Mueller-Hinton agar, read-out: Minimum inhibitory concentration MIC
[6] = tested on: Streptococcus faecalis IFO 12964; experiment: MIC, antibacterial activity (agar culture); assay type: cell-based; conditions: Enterococcus faecalis, IFO12964, 37° C., 18-20 hours, Mueller-Hinton agar, read-out: Minimum inhibitory concentration MIC
[7] = tested on: Gibberella fujikuroi IAM 8046; experiment: MIC, yeasts and molds (agar culture); assay type: cell-based; conditions: Fusarium fujikuroi, IAM8046, 28° C., 120 hours, glucose-peptone agar, read-out: Minimum inhibitory concentration MIC
Sarcina lutea ATCC 9341 = experiment: MIC, antibacterial activity (agar culture); assay type: cell-based; conditions: Micrococcus luteus, ATCC9341, 37° C., 18-20 hours, Mueller-Hinton agar, read-out: Minimum inhibitory concentration MIC
[8] = tested on: Staphylococcus epidermidis ATCC 12228; experiment: MIC, antibacterial activity (agar culture); assay type: cell-based; conditions: ATCC12228, 37° C., 18-20 hours, Mueller-Hinton agar, read-out: Minimum inhibitory concentration MIC
[9] = tested on: Micrococcus lysodeikticus IFO 3333; experiment: MIC, antibacterial activity (agar culture); assay type: cell-based; conditions: Micrococcus luteus, IFO3333, 37° C., 18-20 hours, Mueller-Hinton agar, read-out: Minimum inhibitory concentration MIC
[10] = tested on: Candida albicans NHL 4019; experiment: MIC, yeasts and molds (agar culture); assay type: cell-based; conditions: NHL4019, 28° C., 120 hours, glucose-peptone agar, read-out: Minimum inhibitory concentration MIC
[11] = tested on: Aspergillus oryzae IFM 4014; experiment: MIC, yeasts and molds (agar culture); assay type: cell-based; conditions: IFM4014, 28° C., 120 hours, glucose-peptone agar, read-out: Minimum inhibitory concentration MIC
[12] = tested on: Staphylococcus aureus Smith; experiment: MIC, antibacterial activity (agar culture); assay type: cell-based; conditions: 37° C., 18-20 hours, Mueller-Hinton agar, read-out: Minimum inhibitory concentration MIC
[13] = tested on: Microsporum gypseum IFO 8231; experiment: MIC, yeasts and molds (agar culture); assay type: cell-based; conditions: Nannizzia gypsea, IFO8231, 28° C., 120 hours, glucose-peptone agar, read-out: Minimum inhibitory concentration MIC
Saccharomyces ruxii 6507 = experiment: MIC, yeasts and molds (agar culture); assay type: cell-based; conditions: 28° C., 120 hours, glucose-peptone agar, read-out: Minimum inhibitory concentration MIC
Meth-A fibrosarcoma = experiment: Antitumor effect, survival of tumor-inoculated mice; assay type: in vivo, CDF1 mice; conditions: intraperitoneally, once a day for 10 days
Protocol: (§1) Antitumor effects of some Fredericamycin A derivatives against Ehrlich carcinoma, Meth-A fibrosarcoma and mouse leukemia P-388 were tested in accordance with the following procedures. Antitumor effects against Ehrlich carcinoma and Meth-A fibrosarcoma are expressed by percentage of mean survival time of test and control animals. Antitumor effects against P-388 are expressed by percentage of median survival time of test and control animals.
(§2) (ii) Meth-A fibrosarcoma and mouse leukemia P-388:
(§3) 1×10^6 tumor cells were inoculated to CDF1 mice (.male., Charles River Japan Inc.) intraperitoneally. Each tested compound was given intraperitoneally once a day for 10 days from 1 day after tumor inoculation.

[14] = tested on: Trichophyton mentagrophytes QM 248; experiment: MIC, yeasts and molds (agar culture); assay type: cell-based; conditions: QM248, 28° C., 120 hours, glucose-peptone agar, read-out: Minimum inhibitory concentration MIC
[15] = tested on: Aspergillus niger ATCC 9642; experiment: MIC, yeasts and molds (agar culture); assay type: cell-based; conditions: ATCC9642, 28° C., 120 hours, glucose-peptone agar, read-out: Minimum inhibitory concentration MIC
Seratia marcescens NHL = experiment: MIC, antibacterial activity (agar culture); assay type: cell-based; conditions: 37° C., 18-20 hours, Mueller-Hinton agar, read-out: Minimum inhibitory concentration MIC
Proteus vulgaris OXK = experiment: MIC, antibacterial activity (agar culture); assay type: cell-based; conditions: 37° C., 18-20 hours, Mueller-Hinton agar, read-out: Minimum inhibitory concentration MIC
[16] = tested on: Penicillium chrysogenum ATCC 6010; experiment: MIC, yeasts and molds (agar culture); assay type: cell-based; conditions: ATCC6010, 28° C., 120 hours, glucose-peptone agar, read-out: Minimum inhibitory concentration MIC
[17] = tested on: Piricularia oryzae IAM 5016; experiment: microbe, parasite or virus in culture; assay type: cell-based
Shigella flexneri 2b = experiment: MIC, antibacterial activity (agar culture); assay type: cell-based; conditions: 37° C., 18-20 hours, Mueller-Hinton agar, read-out: Minimum inhibitory concentration MIC
[18] = tested on: Staphylococcus aureus TERAGIMA; experiment: MIC, antibacterial activity (agar culture); assay type: cell-based; conditions: 37° C., 18-20 hours, Mueller-Hinton agar, read-out: Minimum inhibitory concentration MIC
[19] = tested on: Pseudomonas aeruginosa IFO 13736; experiment: MIC, antibacterial activity (agar culture); assay type: cell-based; conditions: IFO13736, 37° C., 18-20 hours, Mueller-Hinton agar, read-out: Minimum inhibitory concentration MIC
[20] = tested on: Helmintsporium sesamum IAM 5012; experiment: MIC, yeasts and molds (agar culture); assay type: cell-based; conditions: 28° C., 120 hours, glucose-peptone agar, read-out: Minimum inhibitory concentration MIC
[21] = tested on: Cladosporium fulvum IAM 5006; experiment: MIC, yeasts and molds (agar culture); assay type: cell-based; conditions: Fulvia fulva, IAM5006, 28° C., 120 hours, glucose-peptone agar, read-out: Minimum inhibitory concentration MIC
Salmonella typhi TD = experiment: MIC, antibacterial activity (agar culture); assay type: cell-based; conditions: Salmonella enterica, read-out: Minimum inhibitory concentration MIC
mouse leukemia P-388 = experiment: Antitumor effect, survival of tumor-inoculated mice; assay type: in vivo, CDF1 mice; conditions: intraperitoneally, once a day for 10 days
Protocol: as §1, §2, §3

physchem = assay type: physicochemical; conditions: 10 μg/ml in dimethylsulfoxide/physiological saline
Protocol: The stability of some Fredericamycin A derivatives and Fredericamycin A in their aqueous solutions were tested in accordance with the following procedures.
The test compounds were individually dissolved in dimethylsulfoxide, followed by dilution of the resulting solutions with physiological saline to adjust the final concentrations of the test compounds and Fredericamycin to 10 μg/ml respectively. The thus-prepared test solutions were then subjected to high performance liquid chromatography after predetermined time intervals to measure the percentage remainders of the test compounds.

various microorganisms [22] = experiment: Antibacterial activities against the tested microorganisms (general statement); assay type: cell-based; conditions: for each of the tested microorganism (Table 1)
Protocol: It should be noted that the MIC of Fredericamycin A was 100 μg/ml or more for each of the tested microorganism.
Culture conditions for the test microorganisms:
Inoculum size: 1×10^6 cells/ml. In the case of bacteria, each bacterium was cultured at 37° C. for 18-20 hours on a Mueller-Hinton agar (product of Difco Corp.). In the case of yeasts and molds, each microorganism was cultured at 28° C. for 120 hours on a glucose-peptone agar.

[23] = prior art statement; cited from earlier work
various microorganisms [24] = conditions: prior art statement; cited from earlier work

SMILES: C/C=C/C=C/c1cc2cc3c(c(O)c2c(=O)[nH]1)C1(CC3)C(=O)c2c(OC(C)=O)c3c(c(OC(C)=O)c2C1=O)C(=O)C(OC)=CC3=O (stereo not shown) [Compound 1, Fredericamycin A diacetate]
- MIC [1]: 0.39 µg/mL
- MIC [2]: 100 µg/mL
- MIC [3]: 50 µg/mL
- response vs control in vivo at 0.125 mg/kg/day (Ehrlich carcinoma; 0.125 mg/kg/day): 147%
- response vs control in vivo at 0.25 mg/kg/day (Ehrlich carcinoma; 0.25 mg/kg/day): 267%
- response vs control in vivo at 0.5 mg/kg/day (Ehrlich carcinoma; 0.5 mg/kg/day): 295%
- MIC [4]: 50 µg/mL
- MIC [5]: > 100 µg/mL
- MIC (Escherichia coli 0-1): > 100 µg/mL
- MIC [6]: 1.56 µg/mL
- MIC [7]: > 100 µg/mL
- MIC (Sarcina lutea ATCC 9341): 0.39 µg/mL
- MIC [8]: 0.1 µg/mL
- MIC [9]: 0.78 µg/mL
- MIC [10]: > 100 µg/mL
- MIC [11]: 1.56 µg/mL
- MIC [12]: 6.25 µg/mL
- MIC [13]: 0.39 µg/mL
- MIC (Saccharomyces ruxii 6507): 0.39 µg/mL
- percentage of mean survival time of test and control animals (Meth-A fibrosarcoma; 0.25 mg/kg/day): 127%
- percentage of mean survival time of test and control animals (Meth-A fibrosarcoma; 0.5 mg/kg/day): 191%
- percentage of mean survival time of test and control animals (Meth-A fibrosarcoma; 1.0 mg/kg/day): 242%
- MIC [14]: 0.39 µg/mL
- MIC [15]: 3.12 µg/mL
- MIC (Seratia marcescens NHL): > 100 µg/mL
- MIC (Proteus vulgaris OXK): > 100 µg/mL
- MIC [16]: 0.78 µg/mL
- MIC ([17]; 120 h; read-out: Minimum inhibitory concentration MIC): 0.05 µg/mL
- MIC (Shigella flexneri 2b): > 100 µg/mL
- MIC [18]: 12.5 µg/mL
- MIC [19]: > 100 µg/mL
- MIC [20]: 0.78 µg/mL
- MIC [21]: 1.56 µg/mL
- MIC (Salmonella typhi TD): > 100 µg/mL

SMILES: CCCCCc1cc2cc3c(c(O)c2c(=O)[nH]1)C1(CC3)C(=O)c2c(OC(C)=O)c3c(c(OC(C)=O)c2C1=O)C(=O)C(OC)=CC3=O (stereo not shown) [Compound 18, diacetyltetrahydrofredericamycin A]
- MIC [1]: 50 µg/mL (≈ 79.7 µM)
- MIC [2]: > 100 µg/mL
- response vs control in vivo at 2 mg/kg/day (Ehrlich carcinoma; 2.0 mg/kg/day): 125%
- response vs control in vivo at 4 mg/kg/day (Ehrlich carcinoma; 4.0 mg/kg/day): > 188%
- response vs control in vivo at 8 mg/kg/day (Ehrlich carcinoma; 8.0 mg/kg/day): > 212%
- MIC (Escherichia coli 0-1): > 100 µg/mL
- MIC [6]: 25 µg/mL (≈ 39.8 µM)
- MIC (Sarcina lutea ATCC 9341): 25 µg/mL (≈ 39.8 µM)
- MIC [8]: 0.78 µg/mL (≈ 1.24 µM)
- MIC [9]: 25 µg/mL (≈ 39.8 µM)
- MIC [10]: > 100 µg/mL
- MIC [12]: 25 µg/mL (≈ 39.8 µM)
- MIC (Saccharomyces ruxii 6507): > 100 µg/mL
- percentage of median survival time of test and control animals (mouse leukemia P-388; 2.0 mg/kg/day): 138%
- percentage of median survival time of test and control animals (mouse leukemia P-388; 4.0 mg/kg/day): 142%
- percentage of median survival time of test and control animals (mouse leukemia P-388; 8.0 mg/kg/day): 147%
- MIC [14]: > 100 µg/mL
- MIC [15]: > 100 µg/mL
- MIC [16]: > 100 µg/mL
- MIC ([17]; 120 h, read-out: Minimum inhibitory concentration MIC): 0.78 µg/mL (≈ 1.24 µM)
- MIC [19]: > 100 µg/mL

SMILES: C/C=C/C=C/c1cc2cc3c(c(O)c2c(=O)[nH]1)C1(CC3)C(=O)c2c(O)c3c(c(O)c2C1=O)C(=O)C(OC)=CC3=O (stereo not shown) [Fredericamycin A]
- Percentage remainder (physchem; 0 hr.): 100%
- remaining at 3 h (physchem; 3 hrs., read-out: Percentage remainder): 78.9%
- remaining at 6 h (physchem; 6 hrs., read-out: Percentage remainder): 64%
- remaining at 24 h (physchem; 24 hrs., read-out: Percentage remainder): 38.1%
- remaining at 48 h (physchem; 48 hrs., read-out: Percentage remainder): 27.3%
- remaining at 72 h (physchem; 72 hrs., read-out: Percentage remainder): 18.4%
- MIC (various microorganisms [22]): ≥ 100 µg/mL
- stability [23]: low
- antibacterial activities (various microorganisms [24]): weak
